Experimental data: US20260200885A1, “BENZOPYRONE COMPOUNDS AS WELL AS PREPARATION METHOD THEREFOR AND USE THEREOF” (CHENGDU DI’AO JIUHONG PHARMACEUTICAL FACTORY, priority 2022, published 2026)
Like-named read-outs stand apart in the source and are kept apart here.

What was measured:
[1] = tested on: A2780 cells; assay: Determination of cell activity (CellTiter-Glo Luminescent Cell Viability Assay); assay type: cell-based; settings: A2780 cells, 7 days treatment, CellTiter-Glo, read-out: IC50
Description: To examine the effect of compounds on cell viability, ATP was directly quantified using the CellTiter-Glo Luminescent Cell Viability Assay (Promega) to determine the number of viable cells.
Cell density was selected based on optimal signal intensity and growth curve for the inoculation of A2780 cells. The cells were incubated at 37° C. and 5% C02 overnight. Cells were treated with blank group, DMSO group and compound group, respectively, at 37° C. and 5% C02 for 7 days. The prepared solutions were added to cell wells according to the instructions of CellTiter-Glo (Promega), and shaken at a speed of 400 g for 2 min. Then, the solutions were centrifuged at 1000 g for 2 min and incubated at rest for 30 min to ensure a complete reaction. […] readings were taken using a multi-label microplate reader (Perkin Elmer) to calculate IC50 values.

[2] = tested on: RNA polymerase I (RNA pol I); assay: Compound selectivity by real-time fluorescent quantitative PCR in A549 cells: genes regulated by RNA pol I; assay type: cell-based; settings: for Expression of genes regulated by RNA pol I (18S, 28S): 72 h, qPCR ΔΔCt, significance by T-Test
Description: (§1) Tumor cells A549 were plated at an appropriate density and incubated overnight. The cells were treated with compounds or DMSO for 72 h, and total cellular RNA was extracted according to the instructions of TaqMan™ Fast Advanced Cells-to-CT™ Kit (Invitrogen #A35377). Briefly, the cells were washed with PBS twice. Supernatants were discarded, and 50 μL/well of lysis buffer was added. The cells were incubated at room temperature for 5 min. Then, 5 μL of stop buffer was added. The mixture was left to stand for 2 min and then placed on ice in preparation for reverse transcription and extraction of cDNA. QPCR was carried out according to the requirements of TaqMan® Fast Advanced Master Mix (Invitrogen). Eukaryotes have three different nuclear RNA polymerases, namely RNA polymerase I (RNA pol I), RNA polymerase II (RNA pol II) and RNA polymerase III (RNA pol III). To eliminate the effect of the compounds on the inhibition of the activity of other RNA polymerases, we selected 18S rRNA, 28S rRNA; β-actin; 5S rRNA; ND1, CYTB and COX1 transcriptionally regulated by RNA Pol I, II, III and POLRMT. Whether the mRNA levels of these genes were inhibited was detected. The qPCR results were analyzed by the ΔΔCt method and statistically analyzed by Graphpad8.0. The significant differences were statistically analyzed by T-Test.

[3] = tested on: RNA polymerase II (RNA pol II); assay: Compound selectivity by real-time fluorescent quantitative PCR in A549 cells: gene regulated by RNA pol II; assay type: cell-based; settings: for Expression of genes regulated by RNA pol II (β-actin): 72 h, qPCR ΔΔCt, significance by T-Test
Description: as §1

[4] = tested on: RNA polymerase III (RNA pol III); assay: Compound selectivity by real-time fluorescent quantitative PCR in A549 cells: gene regulated by RNA pol III; assay type: cell-based; settings: for Expression of genes regulated by RNA pol III (5S): 72 h, qPCR ΔΔCt, significance by T-Test
Description: as §1

[5] = molecular target: T1, POLRMT (Homo sapiens, UniProt O00411); assay: Compound selectivity by real-time fluorescent quantitative PCR in A549 cells: genes regulated by POLRMT; assay type: cell-based; settings: 72 h, qPCR ΔΔCt, significance by T-Test
T1 construct: endogenous in cells; host or cells: A549
Description: as §1

[6] = Pharmacokinetic assay in CD1 mice; assay type: in vivo; settings: for F: bioavailability; for maximum plasma concentration Cmax compared with IMT1B / plasma exposure AUC compared with IMT1B: comparison in words; for half-life: Table I-3, read-out: T1/2 (h) for oral administration (converted)
Description: pharmacokinetic assay of compounds was carried out in CD1 mice aged 6-8 weeks with IMT1B as a positive control. The compounds and the positive control were dissolved in 30% aqueous hydroxypropyl-β-cyclodextrin solution containing 25% PEG400 and administered via intravenous injection (1 mg/kg) or intragastric administration (5 mg/kg). Blood samples were collected at 0.033, 0.083, 0.25, 0.5, 1, 2, 4, 8, 24 h and 0.083, 0.25, 0.5, 1, 2, 4, 8, 24 h respectively after administration.
The concentration of the compounds in plasma samples was analyzed using the LC-MS/MS method. Pharmacokinetic calculations were performed using WinNonlin (Phoenix™, version 8.3) or other similar software. The following pharmacokinetic parameters were calculated from the plasma concentration vs. time data: for intravenous administration: T1/2, C0, AUClast, AUCinf, MRTinf, Cl, Vss, regression coefficient, etc.; for oral administration: T1/2, Cmax, Tmax, AUClast, AUCinf, bioavailability, etc. The above parameter data were statistically calculated and described using descriptive statistics such as mean value and standard deviation.

[7] = tested on: MOLM-13-luc tumor cells; assay: In vivo pharmacodynamic test, MOLM-13-luc orthotopic mouse model of leukemia
Description: The efficacy of compounds was evaluated using an orthotopic mouse model of leukemia. […] After the cell confluence reached 80%-90%, the cells were subcultured into separate flasks. The tumor cells in the logarithmic growth phase were used for the inoculation of tumors in vivo. Approximately 7 days after the inoculation of the tumor cells, according to the body weights of the animals and optical signal intensity at tumor sites, the animals were randomly divided into 4 groups, namely solvent control group [5% TPGS in PH 8 buffer (50 mM potassium dihydrogen phosphate buffer), BID, intragastric administration], IMT1B (50 mpk, BID, intragastric administration), A1-1-5 (25 mpk, BID, intragastric administration) and A1-1-5 (50 mpk, BID, intragastric administration), with 10 animals in each group. Tumor growth was monitored, and behavioral changes in the animals were also monitored.
During the experiment, all the animals were weighed twice a week. The percentage of body weight change (BW change, %) was calculated using the following formula: BW change=(BW Day X/BW Day 0)×100, where BW Day X is the body weight of the animals on the day of administration, and BW Day 0 is the body weight of the animals on the day of grouping.
Mice were imaged twice a week according to their status using the small animal living imaging system IVIS Lumina III (Perkin Elmer). The signal intensity of the bioluminescence imaging (BLI, unit: photons/s) at tumor cell inoculation sites in mice was monitored, which served as the main indicator for evaluating tumor growth and the efficacy of drugs. The specific operation procedures were as follows.
After the mice were intraperitoneally injected with D-luciferin (manufactured by Perkin Elmer, 15 mg/mL solution, injected at […] according to the body weight of experimental animals), the animals were subjected to inhalation anesthesia using 1%-2% isoflurane. Approximately 10 minutes after the injection of D-luciferin, the animals were imaged using IVIS Lumina III. The imaging results were analyzed and processed using the Living Image software (Perkin Elmer), and the optical signal intensity in the ROI (regions of interest) of the whole body of each animal was calculated. […] The administration and imaging were continued for the animals in other groups. At the endpoint of the experiment, the median survival times of all groups throughout the experiment were calculated, and the curves were plotted.

[8] = main pharmacokinetic parameters, Table I-4
[9] = mouse, plasma, po, 5 mg/kg, main pharmacokinetic parameters, Table I-4
[10] = mouse, plasma, po, 5 mg/kg, main pharmacokinetic parameters, Table I-4, read-out: Cmax
[11] = mouse, plasma, po, intragastric administration 5 mg/kg
[12] = at the same dose (50 mpk, BID, intragastric)

T1 sequence (O00411 42-1230): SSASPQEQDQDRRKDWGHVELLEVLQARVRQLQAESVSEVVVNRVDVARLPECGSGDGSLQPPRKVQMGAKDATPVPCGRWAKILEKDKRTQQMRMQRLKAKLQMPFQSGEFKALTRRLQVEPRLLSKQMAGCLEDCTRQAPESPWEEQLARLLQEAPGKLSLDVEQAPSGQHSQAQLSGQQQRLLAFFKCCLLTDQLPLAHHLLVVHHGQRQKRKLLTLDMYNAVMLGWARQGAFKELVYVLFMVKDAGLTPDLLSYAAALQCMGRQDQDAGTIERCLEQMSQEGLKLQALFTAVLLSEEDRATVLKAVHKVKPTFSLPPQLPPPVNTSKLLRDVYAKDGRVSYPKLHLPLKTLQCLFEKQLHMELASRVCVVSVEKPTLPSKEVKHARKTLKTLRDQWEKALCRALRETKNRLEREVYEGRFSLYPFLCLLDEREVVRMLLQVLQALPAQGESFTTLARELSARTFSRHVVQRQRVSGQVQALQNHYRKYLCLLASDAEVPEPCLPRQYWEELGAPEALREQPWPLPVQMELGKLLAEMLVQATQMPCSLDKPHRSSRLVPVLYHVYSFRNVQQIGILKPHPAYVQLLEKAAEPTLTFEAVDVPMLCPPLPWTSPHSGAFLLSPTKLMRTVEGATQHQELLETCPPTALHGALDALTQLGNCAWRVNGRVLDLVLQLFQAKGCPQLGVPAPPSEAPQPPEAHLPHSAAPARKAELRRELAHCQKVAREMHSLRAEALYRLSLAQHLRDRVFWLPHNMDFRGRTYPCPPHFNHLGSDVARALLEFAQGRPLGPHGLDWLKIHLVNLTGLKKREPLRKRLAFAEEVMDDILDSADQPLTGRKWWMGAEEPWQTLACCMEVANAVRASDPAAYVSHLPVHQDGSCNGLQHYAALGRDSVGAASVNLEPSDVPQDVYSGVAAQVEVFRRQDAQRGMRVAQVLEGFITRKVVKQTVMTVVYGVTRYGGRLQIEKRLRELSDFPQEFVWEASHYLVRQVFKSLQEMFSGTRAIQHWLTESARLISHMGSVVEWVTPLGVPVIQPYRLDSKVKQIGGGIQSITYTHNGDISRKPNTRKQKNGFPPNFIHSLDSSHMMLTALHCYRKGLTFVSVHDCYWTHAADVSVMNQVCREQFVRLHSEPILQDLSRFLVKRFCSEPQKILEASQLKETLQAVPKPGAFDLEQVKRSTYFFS

C[C@@H](Oc1ccc2c(-c3ccc(F)cc3Cl)cc(=O)oc2c1)C(=O)c1cccc(C(=O)O)c1 [Compound A1-1-5]
IC50 ([1]; Homo sapiens, 168 h): 0.02 to 0.1 µM
Expression of genes regulated by RNA pol I (18S, 28S) [2]: (-) ((-) represents P≥ 0.05)
Expression of genes regulated by RNA pol II (β-actin) [3]: (-) ((-) represents P≥ 0.05)
Expression of genes regulated by RNA pol III (5S) [4]: (-) ((-) represents P≥ 0.05)
Expression of genes regulated by POLRMT (ND1, CYTB, COX1) [5]: (++) ((++) represents P < 0.01)
F ([6]; Table I-4): 85.846%
maximum plasma concentration Cmax compared with IMT1B [6]: significantly superior to IMT1B
plasma exposure AUC compared with IMT1B [6]: significantly superior to IMT1B
T1/2 [6, 8]: 3.158 h
AUC(0-inf) [6, 9]: 179 µg·h/mL
AUC(0-t) [6, 9]: 178 µg·h/mL
Cmax [6, 10]: 44.1 µg/mL
half-life [6, 11]: 3.16 h
efficacy at a relatively low dose ([7]; MOLM13 orthotopic hematological tumor model, BID intragastric): effective at a relatively low dose
tumor inhibitory effect (BLI imaging) ([7]; MOLM13 orthotopic hematological tumor model, BID intragastric, 25 and 50 mpk): good tumor inhibitory effect
median survival time compared with IMT1B [7, 12]: significantly superior to IMT1B
tumor inhibition compared with IMT1B [7, 12]: significantly superior to IMT1B

C[C@@H](Oc1ccc2c(-c3ccc(F)cc3Cl)cc(=O)oc2c1)C(=O)c1ccc(C(=O)O)cc1 [Compound A1-1-9]
half-life [6, 11]: 3.89 h

C[C@@H](Oc1ccc2c(-c3ccc(F)cc3Cl)cc(=O)oc2c1)C(=O)c1ccnc(C(=O)O)c1 [Compound A1-4-5]
half-life [6, 11]: 9.73 h

C[C@H](Oc1ccc2c(-c3ccc(F)cc3Cl)cc(=O)oc2c1)C(=O)c1ccccc1C(=O)O [Compound A2-1-1]
IC50 ([1]; Homo sapiens, 168 h): 0.1 to 1 µM
half-life [6, 11]: 3.54 h

C[C@H](Oc1ccc2c(-c3ccc(F)cc3Cl)cc(=O)oc2c1)C(=O)c1cccc(C(=O)O)c1 [Compound A2-1-5]
IC50 ([1]; Homo sapiens, 168 h): 0.02 to 0.1 µM
F ([6]; Table I-4): 137.555%
maximum plasma concentration Cmax compared with IMT1B [6]: significantly superior to IMT1B
plasma exposure AUC compared with IMT1B [6]: significantly superior to IMT1B
T1/2 [6, 8]: 3.985 h
AUC(0-inf) [6, 9]: 9.87 µg·h/mL
AUC(0-t) [6, 9]: 9.74 µg·h/mL
Cmax [6, 10]: 1.06 µg/mL
half-life [6, 11]: 3.98 h

CC(Oc1ccc2c(-c3ccc(F)cc3Cl)cc(=O)oc2c1)C(=O)c1cccc(S(N)(=O)=O)c1 (stereo not shown) [Compound A-1-2-1-40]
IC50 ([1]; Homo sapiens, 168 h): 0.02 to 0.1 µM
half-life [6, 11]: 3.57 h

CC(Oc1ccc2c(-c3ccc(F)cc3Cl)cc(=O)oc2c1)C(=O)c1cc(F)cc(C(=O)O)c1 (stereo not shown) [Compound A-1-2-1-93]
IC50 ([1]; Homo sapiens, 168 h): 0.02 to 0.1 µM
F ([6]; Table I-4): 102.733%
maximum plasma concentration Cmax compared with IMT1B [6]: significantly superior to IMT1B
plasma exposure AUC compared with IMT1B [6]: significantly superior to IMT1B
T1/2 [6, 8]: 11.706 h
AUC(0-inf) [6, 9]: 211 µg·h/mL
AUC(0-t) [6, 9]: 155 µg·h/mL
Cmax [6, 10]: 8.96 µg/mL
half-life [6, 11]: 11.7 h

CC(Oc1ccc2c(-c3ccc(F)cc3Cl)cc(=O)oc2c1)C(=O)c1cc(F)c(O)c(F)c1 (stereo not shown) [Compound A-1-2-1-94]
IC50 ([1]; Homo sapiens, 168 h): < 0.02 µM
half-life [6, 11]: 4.57 h

CC(Oc1ccc2c(-c3ccc(F)cc3Cl)cc(=O)oc2c1)C(=O)C1CCN(C2CC2)CC1 (stereo not shown) [Compound A-1-7-1-2]
IC50 ([1]; Homo sapiens, 168 h): 0.1 to 1 µM
half-life [6, 11]: 3.78 h

CC(Oc1ccc2c(-c3ccc(F)cc3Cl)cc(=O)oc2c1)C(=O)c1ccc[nH]1 (stereo not shown) [Compound A-1-10-1-4]
IC50 ([1]; Homo sapiens, 168 h): 0.1 to 1 µM
half-life [6, 11]: 3.76 h

C[C@@H](Oc1ccc2c(-c3ccc(F)cc3Cl)cc(=O)oc2c1)C(=O)N1CCC[C@H](C(=O)O)C1 [IMT1B, reference compound]
IC50 [1]: 0.02 to 0.1 µM
Expression of genes regulated by RNA pol I (18S, 28S) [2]: (-) ((-) represents P≥ 0.05)
inhibition of the activity of RNA polymerase I ([2]; qPCR, in words): do not inhibit
Expression of genes regulated by RNA pol II (β-actin) [3]: (-) ((-) represents P≥ 0.05)
inhibition of the activity of RNA polymerase II ([3]; qPCR, in words): do not inhibit
Expression of genes regulated by RNA pol III (5S) [4]: (-) ((-) represents P≥ 0.05)
inhibition of the activity of RNA polymerase III ([4]; qPCR, in words): do not inhibit
Expression of genes regulated by POLRMT (ND1, CYTB, COX1) [5]: (++) ((++) represents P < 0.01)
F ([6]; Table I-4): 80.236%
T1/2 (h) for oral administration ([6]; intragastric administration 5 mg/kg, Table I-3): 2.445 h
AUCInf [6, 8]: 24.420076 µg·h/mL
AUClast [6, 8]: 24.389836 µg·h/mL
Cmax [6, 8]: 7.3 µg/mL
T1/2 [6, 8]: 2.445 h

CC(Oc1ccc2c(-c3ccc(F)cc3Cl)cc(=O)oc2c1)C(=O)C1CCC(C(=O)[O-])CC1.[Na+] (stereo not drawn) [α-10]
IC50 ([1]; Homo sapiens, 168 h): < 0.02 µM
half-life [6, 11]: 4.29 h

CC(Oc1ccc2c(-c3ccc(F)cc3Cl)cc(=O)oc2c1)C(=O)C1CCNCC1 (stereo not drawn) [α-11]
IC50 ([1]; Homo sapiens, 168 h): 0.02 to 0.1 µM
half-life [6, 11]: 5.27 h

CC(Oc1ccc2c(-c3ccc(F)cc3Cl)cc(=O)oc2c1)C(=O)c1ccncc1 (stereo not drawn) [α-13]
IC50 ([1]; Homo sapiens, 168 h): 0.02 to 0.1 µM
half-life [6, 11]: 6.91 h
